# Data as given in PubChem BioAssay (NCI).
#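 Values below derive from 48-hour exposures of cells grown in 96-well plates, with endpoints linearly interpolated between the two concentrations bracketing the appropriate inhibition level. GI50 = concentration required for 50% inhibition of growth. Definition used: TGI = concentration required for complete inhibition of growth.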
# Assays:
# Experiment in all cases: growth of human tumour cells (NCI), 48 h
# RPMI-8226 leukemia = tested on: RPMI-8226 leukemia
# SK-MEL-28 melanoma = tested on: SK-MEL-28 melanoma
# RXF 393 renal = tested on: RXF 393 renal
# UACC-257 melanoma = tested on: UACC-257 melanoma
# OVCAR-8 ovarian = tested on: OVCAR-8 ovarian
# SW-620 colon = tested on: SW-620 colon
# OVCAR-3 ovarian = tested on: OVCAR-3 ovarian
# UACC-62 melanoma = tested on: UACC-62 melanoma
# DU-145 prostate = tested on: DU-145 prostate
# A498 renal = tested on: A498 renal
# MDA-MB-435 = tested on: MDA-MB-435
# M14 melanoma = tested on: M14 melanoma
# HS 578T breast = tested on: HS 578T breast
# HCT-116 colon = tested on: HCT-116 colon
# NCI-H522 lung = tested on: NCI-H522 lung
# IGROV1 ovarian = tested on: IGROV1 ovarian
# NCI/ADR-RES ovarian = tested on: NCI/ADR-RES ovarian
# K-562 leukemia = tested on: K-562 leukemia
# SF-268 CNS = tested on: SF-268 CNS
# T-47D breast = tested on: T-47D breast
# TK-10 renal = tested on: TK-10 renal
# BT-549 breast = tested on: BT-549 breast
# SK-MEL-2 melanoma = tested on: SK-MEL-2 melanoma
# PC-3 prostate = tested on: PC-3 prostate
# SF-539 CNS = tested on: SF-539 CNS
# HCT-15 colon = tested on: HCT-15 colon
# HOP-62 NSCLC = tested on: HOP-62 NSCLC
# HCC-2998 colon = tested on: HCC-2998 colon
# A549 NSCLC = tested on: A549 NSCLC
# SN12C renal = tested on: SN12C renal
# HOP-92 NSCLC = tested on: HOP-92 NSCLC
# MCF7 breast = tested on: MCF7 breast
# SNB-19 CNS = tested on: SNB-19 CNS
# MALME-3M melanoma = tested on: MALME-3M melanoma
# 786-0 renal = tested on: 786-0 renal
# HL-60(TB) leukemia = tested on: HL-60(TB) leukemia
# SK-MEL-5 melanoma = tested on: SK-MEL-5 melanoma
# COLO 205 colon = tested on: COLO 205 colon
# SK-OV-3 ovarian = tested on: SK-OV-3 ovarian
# CCRF-CEM leukemia = tested on: CCRF-CEM leukemia
# KM12 colon = tested on: KM12 colon
# OVCAR-4 ovarian = tested on: OVCAR-4 ovarian
# NCI-H460 lung = tested on: NCI-H460 lung
# UO-31 renal = tested on: UO-31 renal
# OVCAR-5 ovarian = tested on: OVCAR-5 ovarian
# SNB-75 CNS = tested on: SNB-75 CNS
# ACHN renal = tested on: ACHN renal
# U251 CNS = tested on: U251 CNS
# MOLT-4 leukemia = tested on: MOLT-4 leukemia
# NCI-H23 lung = tested on: NCI-H23 lung
# SR leukemia = tested on: SR leukemia
# CAKI-1 renal = tested on: CAKI-1 renal
# HT29 colon = tested on: HT29 colon
# LOX IMVI melanoma = tested on: LOX IMVI melanoma
# EKVX NSCLC = tested on: EKVX NSCLC
# SF-295 CNS = tested on: SF-295 CNS
# NCI-H226 lung = tested on: NCI-H226 lung
# MDA-MB-231 breast = tested on: MDA-MB-231 breast
smiles,measurement,setting,value
COC(=O)c1c(C)c2n(c1C)C(=O)C(c1ccccc1)=C2,GI50,RPMI-8226 leukemia,25.9 µM
same,TGI,RPMI-8226 leukemia,> 100 µM
same,GI50,SK-MEL-28 melanoma,> 87.8 µM
same,TGI,SK-MEL-28 melanoma,> 100 µM
same,GI50,RXF 393 renal,55 µM
same,TGI,RXF 393 renal,> 100 µM
same,GI50,UACC-257 melanoma,> 100 µM
same,TGI,UACC-257 melanoma,> 100 µM
same,GI50,OVCAR-8 ovarian,> 90.9 µM
same,TGI,OVCAR-8 ovarian,> 100 µM
same,GI50,SW-620 colon,48.6 µM
same,TGI,SW-620 colon,> 100 µM
same,GI50,OVCAR-3 ovarian,45.4 µM
same,TGI,OVCAR-3 ovarian,> 100 µM
same,GI50,UACC-62 melanoma,28.1 µM
same,TGI,UACC-62 melanoma,> 100 µM
same,GI50,DU-145 prostate,> 100 µM
same,TGI,DU-145 prostate,> 100 µM
same,GI50,A498 renal,> 84.7 µM
same,TGI,A498 renal,> 100 µM
same,GI50,MDA-MB-435,25.1 µM
same,TGI,MDA-MB-435,> 100 µM
same,GI50,M14 melanoma,> 71 µM
same,TGI,M14 melanoma,> 100 µM
same,GI50,HS 578T breast,8.13 µM
same,TGI,HS 578T breast,> 100 µM
same,GI50,HCT-116 colon,42.5 µM
same,TGI,HCT-116 colon,> 100 µM
same,GI50,NCI-H522 lung,58.2 µM
same,TGI,NCI-H522 lung,> 100 µM
same,GI50,IGROV1 ovarian,34.4 µM
same,TGI,IGROV1 ovarian,> 100 µM
same,GI50,NCI/ADR-RES ovarian,53.2 µM
same,TGI,NCI/ADR-RES ovarian,> 100 µM
same,GI50,K-562 leukemia,45.3 µM
same,TGI,K-562 leukemia,> 100 µM
same,GI50,SF-268 CNS,> 100 µM
same,TGI,SF-268 CNS,> 100 µM
same,GI50,T-47D breast,9.38 µM
same,TGI,T-47D breast,> 100 µM
same,GI50,TK-10 renal,48.2 µM
same,TGI,TK-10 renal,> 100 µM
same,GI50,BT-549 breast,61.6 µM
same,TGI,BT-549 breast,> 100 µM
same,GI50,SK-MEL-2 melanoma,> 100 µM
same,TGI,SK-MEL-2 melanoma,> 100 µM
same,GI50,PC-3 prostate,> 80.6 µM
same,TGI,PC-3 prostate,> 100 µM
same,GI50,SF-539 CNS,> 88.8 µM
same,TGI,SF-539 CNS,> 100 µM
same,GI50,HCT-15 colon,28.9 µM
same,TGI,HCT-15 colon,> 100 µM
same,GI50,HOP-62 NSCLC,67.1 µM
same,TGI,HOP-62 NSCLC,> 100 µM
same,GI50,HCC-2998 colon,> 57.8 µM
same,TGI,HCC-2998 colon,> 100 µM
same,GI50,A549 NSCLC,> 81.2 µM
same,TGI,A549 NSCLC,> 100 µM
same,GI50,SN12C renal,> 100 µM
same,TGI,SN12C renal,> 100 µM
same,GI50,HOP-92 NSCLC,> 47.1 µM
same,TGI,HOP-92 NSCLC,> 100 µM
same,GI50,MCF7 breast,5.32 µM
same,TGI,MCF7 breast,> 100 µM
same,GI50,SNB-19 CNS,> 95.6 µM
same,TGI,SNB-19 CNS,> 100 µM
same,GI50,MALME-3M melanoma,> 100 µM
same,TGI,MALME-3M melanoma,> 100 µM
same,GI50,786-0 renal,88.1 µM
same,TGI,786-0 renal,> 100 µM
same,GI50,HL-60(TB) leukemia,53.8 µM
same,TGI,HL-60(TB) leukemia,> 100 µM
same,GI50,SK-MEL-5 melanoma,26.9 µM
same,TGI,SK-MEL-5 melanoma,> 100 µM
same,GI50,COLO 205 colon,> 93 µM
same,TGI,COLO 205 colon,> 100 µM
same,GI50,SK-OV-3 ovarian,> 73.9 µM
same,TGI,SK-OV-3 ovarian,> 100 µM
same,GI50,CCRF-CEM leukemia,51.8 µM
same,TGI,CCRF-CEM leukemia,> 100 µM
same,GI50,KM12 colon,49.7 µM
same,TGI,KM12 colon,> 100 µM
same,GI50,OVCAR-4 ovarian,50.4 µM
same,TGI,OVCAR-4 ovarian,> 100 µM
same,GI50,NCI-H460 lung,58.2 µM
same,TGI,NCI-H460 lung,> 100 µM
same,GI50,UO-31 renal,31.7 µM
same,TGI,UO-31 renal,> 100 µM
same,GI50,OVCAR-5 ovarian,> 91.9 µM
same,TGI,OVCAR-5 ovarian,> 100 µM
same,GI50,SNB-75 CNS,30.1 µM
same,TGI,SNB-75 CNS,> 100 µM
same,GI50,ACHN renal,> 87.6 µM
same,TGI,ACHN renal,> 100 µM
same,GI50,U251 CNS,82.8 µM
same,TGI,U251 CNS,> 100 µM
same,GI50,MOLT-4 leukemia,30.8 µM
same,TGI,MOLT-4 leukemia,> 100 µM
same,GI50,NCI-H23 lung,> 58.3 µM
same,TGI,NCI-H23 lung,> 100 µM
same,GI50,SR leukemia,> 50.1 µM
same,TGI,SR leukemia,> 100 µM
same,GI50,CAKI-1 renal,> 47.9 µM
same,TGI,CAKI-1 renal,> 100 µM
same,GI50,HT29 colon,41.1 µM
same,TGI,HT29 colon,> 100 µM
same,GI50,LOX IMVI melanoma,58.8 µM
same,TGI,LOX IMVI melanoma,> 100 µM
same,GI50,EKVX NSCLC,5.91 µM
same,TGI,EKVX NSCLC,> 100 µM
same,GI50,SF-295 CNS,> 61.9 µM
same,TGI,SF-295 CNS,> 100 µM
same,GI50,NCI-H226 lung,> 100 µM
same,TGI,NCI-H226 lung,> 100 µM
same,GI50,MDA-MB-231 breast,24.3 µM
same,TGI,MDA-MB-231 breast,> 100 µM
